Reference: patent publication US9260467B2, “Sialic acid dimers” (priority 2011, dated 2016)

Key:
Siglec-2 (CD22) [1] = molecular target: T1, Siglec-2 (CD22) (Homo sapiens, UniProt P20273); experiment: known affinity assay (Bock et al., Methods Mol. Biol. 2006), 'Literature assay'; type: binding; conditions: relative Inhibitory Potency; BPC Neu5Ac = 1
T1 sequence (P20273 20-847): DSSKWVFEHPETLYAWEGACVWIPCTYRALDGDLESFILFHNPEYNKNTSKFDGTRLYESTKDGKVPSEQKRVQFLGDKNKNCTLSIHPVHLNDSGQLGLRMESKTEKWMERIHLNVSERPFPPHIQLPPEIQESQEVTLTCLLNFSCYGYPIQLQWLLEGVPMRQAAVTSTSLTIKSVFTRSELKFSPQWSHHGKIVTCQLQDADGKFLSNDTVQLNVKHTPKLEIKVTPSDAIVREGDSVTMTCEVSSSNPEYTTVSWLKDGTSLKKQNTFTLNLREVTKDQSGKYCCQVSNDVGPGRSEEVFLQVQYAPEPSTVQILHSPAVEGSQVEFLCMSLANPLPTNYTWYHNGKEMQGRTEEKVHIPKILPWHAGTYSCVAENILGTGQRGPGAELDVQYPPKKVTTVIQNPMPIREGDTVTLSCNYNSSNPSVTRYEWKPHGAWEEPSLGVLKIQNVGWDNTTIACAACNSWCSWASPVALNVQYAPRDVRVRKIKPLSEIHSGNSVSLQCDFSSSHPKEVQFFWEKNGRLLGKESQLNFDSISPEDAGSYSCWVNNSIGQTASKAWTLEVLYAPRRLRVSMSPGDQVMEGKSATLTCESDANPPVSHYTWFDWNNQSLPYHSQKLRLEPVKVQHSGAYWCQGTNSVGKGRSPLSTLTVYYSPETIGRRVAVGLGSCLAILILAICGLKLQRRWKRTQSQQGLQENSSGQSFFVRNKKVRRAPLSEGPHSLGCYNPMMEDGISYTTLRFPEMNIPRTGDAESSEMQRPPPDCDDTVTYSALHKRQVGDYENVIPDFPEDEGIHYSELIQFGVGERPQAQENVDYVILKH
Description: The affinity of a number of dimers was measured using a known assay (Bock et al., Methods Mol. Biol. 2006, 347, 359-375). […] Exact values were undeterminable, however, owing to fluctuating values. In order to be able to determine the affinity of the new derivatives reliably, a new assay was drawn up. For this assay, compound 155 was prepared.

Siglec-2 (CD22) [2] = molecular target: T1, Siglec-2 (CD22); experiment: new affinity assay: displacement of biotinylated compound 155 from sialidase-treated Daudi cells, FACS with streptavidin-PE; type: binding; design: endogenous in cells; host or cells: Daudi (human B-cell lymphoma line); conditions: for rIP: Table II, rIP values set relative to compound 38, Daudi cells, displacement of compound 155; for rIP (New assay): relative Inhibitory Potency from IC50, human B-cell lymphoma line Daudi, compound 38 = 1
Summary of the method: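 Sialidase-treated Daudi cells preincubated on ice 15 min with inhibitor (1 mM to 1×10^−7 mM), then 20 min with biotinylated probe (4 μM as added); bound probe detected by streptavidin-PE flow cytometry. IC50 converted to relative inhibitory potency (rIP) against a reference substance.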

SMILES	rIP (Literature assay) (Siglec-2 (CD22) [1])	rIP (Siglec-2 (CD22) [2])	rIP (New assay) (Siglec-2 (CD22) [2])
CO[C@]1(C(=O)[O-])C[C@H](O)[C@@H](NC(C)=O)[C@H]([C@H](O)[C@H](O)CNC(=O)c2ccc(-c3ccccc3)cc2)O1.[Na+] [BPC Neu 5Ac, reference compound]	1		
CC(=O)N[C@H]1[C@H]([C@H](O)[C@H](O)CO)O[C@@](OCCCSCCNC(=O)c2ccc(C(=O)NCCSCCCO[C@]3(C(=O)[O-])C[C@H](O)[C@@H](NC(C)=O)[C@H]([C@H](O)[C@H](O)CO)O3)cc2)(C(=O)[O-])C[C@@H]1O.[Na+].[Na+] [Compound 38]	~1-3	1	1
CC(=O)N[C@H]1[C@H]([C@H](O)[C@H](O)CNC(=O)c2ccc(-c3ccccc3)cc2)O[C@@](OCCCSCCNC(=O)c2ccc(C(=O)NCCSCCCO[C@]3(C(=O)[O-])C[C@H](O)[C@@H](NC(C)=O)[C@H]([C@H](O)[C@H](O)CNC(=O)c4ccc(-c5ccccc5)cc4)O3)cc2)(C(=O)[O-])C[C@@H]1O.[Na+].[Na+] [Compound 21]	>2000	2979	2979
CC(=O)N[C@H]1[C@H]([C@H](O)[C@H](O)CNC(=O)Cc2ccc(-c3ccccc3)cc2)O[C@@](OCCCSCCNC(=O)c2ccc(C(=O)NCCSCCCO[C@]3(C(=O)[O-])C[C@H](O)[C@@H](NC(C)=O)[C@H]([C@H](O)[C@H](O)CNC(=O)Cc4ccc(-c5ccccc5)cc4)O3)cc2)(C(=O)[O-])C[C@@H]1O.[Na+].[Na+] [Compound 79]		181	
CC(=O)N[C@H]1[C@H]([C@H](O)[C@H](O)CNC(=O)Cc2ccc(-c3ccccc3)cc2)O[C@@](OCCCSCCNC(=O)c2ccc(-c3ccc(C(=O)NCCSCCCO[C@]4(C(=O)[O-])C[C@H](O)[C@@H](NC(C)=O)[C@H]([C@H](O)[C@H](O)CNC(=O)Cc5ccc(-c6ccccc6)cc5)O4)cc3)cc2)(C(=O)[O-])C[C@@H]1O.[Na+].[Na+] [Compound 128]		19	
CC(=O)N[C@H]1[C@H]([C@H](O)[C@H](O)CNC(=O)c2ccc(-c3ccccc3)cc2)O[C@@](OCCCSCCNC(=O)C#CC(=O)NCCSCCCO[C@]2(C(=O)[O-])C[C@H](O)[C@@H](NC(C)=O)[C@H]([C@H](O)[C@H](O)CNC(=O)c3ccc(-c4ccccc4)cc3)O2)(C(=O)[O-])C[C@@H]1O.[Na+].[Na+] [Compound 25]		4944	
CC(=O)N[C@H]1[C@H]([C@H](O)[C@H](O)CNC(=O)c2ccc(-c3ccccc3)cc2)O[C@@](OCCCSCCNc2c(NCCSCCCO[C@]3(C(=O)[O-])C[C@H](O)[C@@H](NC(C)=O)[C@H]([C@H](O)[C@H](O)CNC(=O)c4ccc(-c5ccccc5)cc4)O3)c(=O)c2=O)(C(=O)[O-])C[C@@H]1O.[Na+].[Na+] [Compound 51]		299	
CC(=O)N[C@H]1[C@H]([C@H](O)[C@H](O)CNC(=O)c2ccc(-c3ccccc3)cc2)O[C@@](OCCCSCCNC(=O)C2CCC(C(=O)NCCSCCCO[C@]3(C(=O)[O-])C[C@H](O)[C@@H](NC(C)=O)[C@H]([C@H](O)[C@H](O)CNC(=O)c4ccc(-c5ccccc5)cc4)O3)CC2)(C(=O)[O-])C[C@@H]1O.[Na+].[Na+] (some centres unmarked) [Compound 31]		643	
CC(=O)N[C@H]1[C@H]([C@H](O)[C@H](O)CNC(=O)c2ccc(-c3cccs3)cc2)O[C@@](OCCCSCCNC(=O)c2ccc(C(=O)NCCSCCCO[C@]3(C(=O)[O-])C[C@H](O)[C@@H](NC(C)=O)[C@H]([C@H](O)[C@H](O)CNC(=O)c4ccc(-c5cccs5)cc4)O3)cc2)(C(=O)[O-])C[C@@H]1O.[Na+].[Na+] [Compound 80]		14342	
CC(=O)N[C@H]1[C@H]([C@H](O)[C@H](O)CNC(=O)c2ccc(-c3ccco3)cc2)O[C@@](OCCCSCCNC(=O)c2ccc(C(=O)NCCSCCCO[C@]3(C(=O)[O-])C[C@H](O)[C@@H](NC(C)=O)[C@H]([C@H](O)[C@H](O)CNC(=O)c4ccc(-c5ccco5)cc4)O3)cc2)(C(=O)[O-])C[C@@H]1O.[Na+].[Na+] [Compound 82]		752	
